The record followed here is US10428028B2, “HDAC inhibitors” (BIOMARIN PHARMACEUTICAL INC., priority 2013, dated 2019).

In one data set the target is HDAC1 (Homo sapiens (Human), UniProt Q13547). Nature of the data set: HDAC enzyme inhibition assay (Fluor-de-Lys), HDAC1. The settings on record: 2 hours pre-incubation. In kind it is biochemical. The procedure:
(§1) The HDAC activity inhibition assay was performed as follows to determine the ability of a test compound to inhibit HDAC enzymatic activity. Serial dilutions of HDAC inhibitors were prepared in HDAC assay buffer (25 mM Tris/HCl, pH 8.0, 137 mM NaCl, 2.7 mM KCl, 1 mM MgCl2, pH 8) in 96-well assay plates (Fisher scientific, #07-200-309) and were pre-incubated for 2 hours at room temperature in the presence of 125 μg/ml BSA and purified HDAC1 (BPS Bioscience, San Diego, Calif., #50051), HDAC2 (BPS Bioscience, #50053), or HDAC3/NcoR2 (BPS Bioscience, #50003) at concentrations of 1.25, 1.32, and 0.167 μg/mL, respectively. Following pre-incubation, Fluor-de-Lys™ substrate (Enzo Life Sciences, Plymouth Meeting, Pa., BML-KI104-0050) was added to a final concentration of 10 μM and plates were further incubated for 30 minutes at room temperature. The enzymatic reaction was stopped by addition of Trichostatin A (Sigma-Aldrich, St Louis, Mo., #T8552, final concentration: 100 nM) and trypsin (MP Biomedicals, Solon, Ohio, #02101179) was added to reach a final concentration of 100 μg/mL. After a 15 minute incubation at room temperature, fluorescence was recorded using a Spectramax M2 fluorometer (Molecular Devices, Sunnyvale, Calif.) with excitation at 365 nm and emission at 460 nm. IC50 values were calculated by using a sigmoidal dose-response (variable slope) equation in GraphPad Prism® 5 for Windows (GraphPad Software, La Jolla, Calif.). Results for selected compounds in the HDAC activity inhibition assay are presented in Table 5 (IC50 ranges: IA>20 μM, A<1 μM, 1<B<5 μM, 5<C<10 μM, 10<D<20 μM, ND: not determined).

Data set [1] can be described thus: Hepatocyte stability and metabolism (parent remaining, acid and OPD formation). Format: in vitro ADME. The conditions noted are these: human hepatocytes; for % left 6H Hum hep: 5 μM; for OPD: OPD formation by LC-MS/MS after phenylglyoxal derivatisation. Here is the method:
The inventors have found, however, that formula (I) compound metabolites are substantially free of OPD when formula (I) compounds are subjected to conditions intended to mimic in vivo metabolism pathways. As used herein, the term “substantially free of OPD” means that OPD was not detected by LC-MS/MS after (i) incubating a formula (I) compound with human, monkey, dog and rat hepatocytes and (ii) treating the metabolite milieu with an acidic solution of phenylglyoxal in an organic solvent (this addition leads to quantitative formation of 2-phenylquinoxaline, which can be easily quantified with a low lower limit of quantitation (LLOQ)). See the Examples section.
To assess the stability and metabolism of RGFP compounds and to quantify the metabolites in hepatocytes. This assay was designed to evaluate the metabolism of RGFP compounds, following their incubation with human, monkey, dog and rat hepatocytes by monitoring either parent drug disappearance or metabolite appearance using LC-MS/MS. The results are shown in Table 5 ((% Left in Hep: IA<10%, 50%<A, 50%>B>30%, 30%>C>10%, ND: not determined).
Procedure: Turn on the water-bath heater to 37° C. Take out the KHB buffer and make sure it is at room temp before use. Prepare 2.5 mM concentration of RGFP compound in DMSO stock. Add 10 μL of above DMSO stock to 2490 μL KHB buffer; final concentration of RGFP compound will be 10 μM. Pre-warm 45 ml InVitro HT Medium to 37° C. in a sterile 50 ml conical tube. Add 1.0 mL Torpedo Antibiotic Mix per 45 mL InVitro HT medium. Transfer 13 mL of warm HT medium with Antibiotic Mix into a 15 mL conical tube. Carefully remove the hepatocyte vials from liquid nitrogen (liquid phase). Immediately immerse the vial into a 37° C. water bath. Shake gently until the ice melts entirely. […] Immediately empty contents of the vial into 13 ml of pre-warmed InVitro HT Medium with antibiotics. Rinse the vial with the HT media just transferred the hepatocytes to, in order to ensure complete transfer. Centrifuge the cell suspension at 600 RPM for 5 minutes at room temperature. […] Add 1.0 ml of KHB (at room temperature) buffer to the tube of hepatocyte pellet. Loosen the cell pellet by gently swirling the centrifuge tube. Transfer 100 μL of above solution to a different tube and add 900 μL of KHB buffer to count the cells. Determine the total cell count and the number of viable cells using the Trypan Blue exclusion method. Once the cell count is obtained, multiply the number by 10 (attributing to the dilution factor). Add required volume of KHB buffer to the tube containing hepatocytes such that the final count will be 2 million cells/mL. Dispense 50 μL of 2 million cells/ml to a 96 well plate and then add 50 μl of DMSO stock to respective wells (such that, the concentration of RGFP compounds is 5 μM and number of cells are 100000 in each well). Place the plates on a shaker in a 37° C. incubator with 5% CO2. Separate plates for each time point are advisable (Time points: 0 h, 1 h, 2 h, and 6 h). After each time point, add 100 μL of quenching solution. Quenching solution is an acetonitrile solution containing RGFP531 (10 μM) internal standard, 0.1% formic acid and phenylglyoxol (400 μM). The formic acid and phenylglyoxal is used for the identification and quantification of OPD as mentioned above. Pipette up and down a few times to ensure a complete stop of reaction. Transfer all the solution into a 1.5 ml tube, vortex thoroughly, and centrifuge at 14000 RPM at 4° C. for 5 minutes to precipitate cell debris. Transfer the 150 μL of supernatant to vials for analysis on LC-MS/MS.
LC-MS/MS parameters for RGFP compounds and metabolites including OPD: LC-MS/MS Parameters for API 2000 QTrap: System: HPLC 1100; Column: Gemini C18, 5 μM 4.6×50 mm; Column Temp: Ambient; MS: API 2000 QTrap (MI mode); Mobile Phase A: HPLC water with 0.05% Formic Acid; Mobile Phase B: Acetonitrile with 0.05% Formic Acid.

In the next data set the target is HDAC2 (Homo sapiens (Human), UniProt Q92769). Nature of the data set: HDAC enzyme inhibition assay (Fluor-de-Lys), HDAC2. In kind it is biochemical. The settings on record: 2 hours pre-incubation. The procedure:
as §1

Sequence of HDAC1 (Q13547 whole entry): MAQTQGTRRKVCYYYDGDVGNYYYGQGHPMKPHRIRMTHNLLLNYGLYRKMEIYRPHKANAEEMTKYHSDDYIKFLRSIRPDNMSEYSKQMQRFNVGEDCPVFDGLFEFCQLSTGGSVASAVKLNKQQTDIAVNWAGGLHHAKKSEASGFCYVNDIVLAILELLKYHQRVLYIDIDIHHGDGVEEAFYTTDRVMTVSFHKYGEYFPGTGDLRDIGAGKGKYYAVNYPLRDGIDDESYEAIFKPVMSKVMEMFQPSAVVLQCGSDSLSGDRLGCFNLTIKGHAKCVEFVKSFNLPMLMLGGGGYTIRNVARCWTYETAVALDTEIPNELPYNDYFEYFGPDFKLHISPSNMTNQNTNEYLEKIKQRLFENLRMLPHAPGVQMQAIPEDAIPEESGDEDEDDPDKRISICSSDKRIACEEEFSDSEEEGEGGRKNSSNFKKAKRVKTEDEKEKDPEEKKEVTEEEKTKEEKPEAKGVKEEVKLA
Sequence of HDAC2 (Q92769 whole entry): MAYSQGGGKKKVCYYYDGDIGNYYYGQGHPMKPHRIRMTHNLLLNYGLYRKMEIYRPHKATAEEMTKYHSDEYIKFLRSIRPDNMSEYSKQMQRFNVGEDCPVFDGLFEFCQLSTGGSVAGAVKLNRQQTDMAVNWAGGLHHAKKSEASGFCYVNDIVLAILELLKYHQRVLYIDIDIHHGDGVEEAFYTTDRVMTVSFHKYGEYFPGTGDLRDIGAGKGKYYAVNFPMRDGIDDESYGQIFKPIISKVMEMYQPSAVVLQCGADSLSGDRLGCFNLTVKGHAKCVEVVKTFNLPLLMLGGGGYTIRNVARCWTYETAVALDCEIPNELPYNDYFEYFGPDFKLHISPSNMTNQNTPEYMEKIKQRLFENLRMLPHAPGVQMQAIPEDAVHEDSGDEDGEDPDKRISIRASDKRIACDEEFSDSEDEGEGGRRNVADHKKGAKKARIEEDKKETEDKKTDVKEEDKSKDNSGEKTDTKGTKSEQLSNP

What is called IC50 is the concentration needed to halve the response being measured. A low value points to inhibition by little substance. In turn, `Nc1ccccc1NC(=O)c1ccc2nn(Cc3cncc(F)c3)cc2c1` [Compound A14, N-(2-aminophenyl)-2-((5-fluoropyridin-3-yl)methyl)-2H-indazole-5-carboxamide] had an IC50 on HDAC1 below 1000 nM. For the same compound, in data set [1], the “% left 6H Hum hep” value is given as “A (50%<A)” and the OPD result was “No OPD”.
With `Nc1ccccc1NC(=O)c1ccc2c(cnn2Cc2ccc(F)c(F)c2)c1` [Compound A9], the IC50 at HDAC1 is below 1000 nM. The compound also yielded an IC50 on HDAC2 below 1000 nM. In data set [1], the “% left 6H Hum hep” value is “B (50%>B>30%)” and the OPD entry was “No OPD”.
For the compound `Nc1ccccc1NC(=O)c1ccc2c(cnn2Cc2cccnc2)c1` [Compound A1], the IC50 against HDAC1 and at HDAC2 was below 1000 nM each time. For the same compound, the “% left 6H Hum hep” value in data set [1] is given as “A (50%<A)”. The OPD entry in data set [1] is given as “No OPD”.
On to `Nc1cc(F)ccc1NC(=O)c1ccc2c(cnn2Cc2cncc(F)c2)c1` [Compound A7], for which the IC50 at HDAC1 is below 1000 nM. The compound also came in with an IC50 at HDAC2 below 1000 nM. In data set [1], the “% left 6H Hum hep” value is reported as “B (50%>B>30%)” and the OPD result is “No OPD”.
Regarding `Nc1cc(F)ccc1NC(=O)c1ccc2c(cnn2Cc2cccnc2)c1` [Compound A6], the IC50 on HDAC1 and against HDAC2 was below 1000 nM in each case. Further, the “% left 6H Hum hep” value in data set [1] is given as “B (50%>B>30%)”. For the same compound, in data set [1], the OPD entry is reported as “No OPD”.
With `Cn1cc(Cn2ncc3cc(C(=O)Nc4ccccc4N)ccc32)cn1` [Compound A3], the IC50 at HDAC1 and against HDAC2 was below 1000 nM in each case. Also, the “% left 6H Hum hep” value in data set [1] is “A (50%<A)”. Further, the OPD result in data set [1] is listed as “No OPD”.
`Nc1cc(F)ccc1NC(=O)c1ccc2c(cnn2CC2CC2)c1` [Compound A12] showed an IC50 on HDAC1 of 1000 to 5000 nM. The IC50 against HDAC2 was in the range of 5000 to 10000 nM. For the same compound, in data set [1], the “% left 6H Hum hep” value is “C (30%>C>10%)” and the OPD entry was “No OPD”.
The matching figures for `Cc1ccc(Cn2ncc3cc(C(=O)Nc4ccc(F)cc4N)ccc32)c(C)n1` [Compound A8]: below 1000 nM, 1000 to 5000 nM, “A (50%<A)” and “No OPD”.
The matching figures for `Cc1ccc(Cn2cc3cc(C(=O)Nc4ccccc4N)ccc3n2)c(C)n1` [Compound A15]: below 1000 nM, 1000 to 5000 nM, “A (50%<A)” and “No OPD”.
Compound `Nc1ccccc1NC(=O)c1ccc2c(cnn2Cc2cncc(F)c2)c1` [Compound A4, N-(2-aminophenyl)-1-((5-fluoropyridin-3-yl)methyl)-1H-indazole-5-carboxamide] gave an IC50 against HDAC1 below 1000 nM. Moreover, in data set [1], the “% left 6H Hum hep” value is “A (50%<A)” and the OPD result is “No OPD”.
`Cc1ccc(Cn2ncc3cc(C(=O)Nc4ccccc4N)ccc32)c(C)n1` [Compound A5] registered an IC50 on HDAC1 below 1000 nM. Further, the IC50 at HDAC2 is below 1000 nM. In data set [1], the “% left 6H Hum hep” value is “B (50%>B>30%)” and the OPD entry is recorded as “No OPD”.
`Nc1ccccc1NC(=O)c1ccc2nn(Cc3cccnc3)cc2c1` [Compound A13]: on HDAC1, the IC50 is below 1000 nM. Also, the IC50 against HDAC2 was below 1000 nM. For the same compound, in data set [1], the “% left 6H Hum hep” value was “A (50%<A)” and the OPD result was “No OPD”.
In turn, `Nc1ccccc1NC(=O)c1ccc2c(cnn2Cc2ccccc2)c1` [Compound A2] displayed an IC50 at HDAC1 below 1000 nM. The compound further registered an IC50 against HDAC2 below 1000 nM. Moreover, in data set [1], the “% left 6H Hum hep” value is given as “B (50%>B>30%)” and the OPD entry was “No OPD”.
